Source: patent publication US10174016B2 (BAYER AKTIENGESELLSCHAFT, priority 2014, dated 2019)
Where two headings read alike, the source gives them in different places.

Key:
human P2X3 receptor = human P2X3 receptor (Homo sapiens (Human), UniProt P56373); assay: Intracellular calcium measurement (FLIPR, Fluo-4) of antagonist activity at human P2X3 receptors; assay type: cell-based; settings: read-out: hP2X3 IC50
Description: (§1) Intracellular Calcium Measurement to Assess Antagonist Activity at Human P2X3 and Human P2X2/3 Receptors
(§2) A fluorescent imaging plate reader (FLEX/FLIPR station; Molecular Devices) was used to monitor intracellular calcium levels using the calcium-chelating dye Fluo-4 (Molecular Probes). […] Cells expressing purinergic receptors P2X3 (human) or P2X2/3 (human) were plated at a density of 15,000 cells/well in collagen-coated 384-well plates approximately 20 hours before beginning the assay. […] The test compound was added in a volume of 5 μl and allowed to incubate for 30 min at 37° C. The final assay DMSO concentration is 1%. The agonist, α,β-Me-ATP, was added in a volume of 20 μl at a concentration representing the EC80 value. The fluorescence was measured for an interval of 90 sec at 2 sec intervals and analyzed based on the increase in peak relative fluorescence units (RFU) compared to the basal fluorescence. Peak fluorescence was used to determine the response to agonist obtained at each concentration of test compound by the following equation: % Response=100*(RFU(test compound)−RFU(control)/RFU(DMSO)−RFU(control))
(§3) The Examples were tested in triplicates per plate and mean values were plotted in Excel XLFit to determine IC50 values at the human P2X3 and human P2X2/3 receptors, percentage of maximal inhibition and the Hill coefficients.

human P2X2/3 receptor = human P2X2/3 receptor (Homo sapiens (Human), UniProt P56373+Q9UBL9); assay: Intracellular calcium measurement (FLIPR, Fluo-4) of antagonist activity at human P2X2/3 receptors; assay type: cell-based
Description: as §1, §2, §3

[1] = human P2X3, FLIPR calcium assay, agonist α,β-Me-ATP
[2] = human P2X2/3, FLIPR calcium assay, agonist α,β-Me-ATP, read-out: hP2X2/3 IC50

Chain of human P2X3 receptor (P56373 whole entry): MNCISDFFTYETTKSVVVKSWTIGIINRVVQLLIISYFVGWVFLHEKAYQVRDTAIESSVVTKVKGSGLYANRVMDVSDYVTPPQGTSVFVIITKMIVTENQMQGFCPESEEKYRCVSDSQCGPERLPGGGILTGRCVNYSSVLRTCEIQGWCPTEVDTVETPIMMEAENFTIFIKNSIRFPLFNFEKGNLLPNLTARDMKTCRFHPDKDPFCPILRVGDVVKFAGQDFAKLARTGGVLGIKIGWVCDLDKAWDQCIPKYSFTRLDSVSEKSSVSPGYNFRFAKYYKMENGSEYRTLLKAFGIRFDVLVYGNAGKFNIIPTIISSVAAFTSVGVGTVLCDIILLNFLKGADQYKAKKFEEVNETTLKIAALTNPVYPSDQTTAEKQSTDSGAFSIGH
Chain of human P2X2/3 receptor (P56373 whole entry): as above
Chain of human P2X2/3 receptor (Q9UBL9 whole entry): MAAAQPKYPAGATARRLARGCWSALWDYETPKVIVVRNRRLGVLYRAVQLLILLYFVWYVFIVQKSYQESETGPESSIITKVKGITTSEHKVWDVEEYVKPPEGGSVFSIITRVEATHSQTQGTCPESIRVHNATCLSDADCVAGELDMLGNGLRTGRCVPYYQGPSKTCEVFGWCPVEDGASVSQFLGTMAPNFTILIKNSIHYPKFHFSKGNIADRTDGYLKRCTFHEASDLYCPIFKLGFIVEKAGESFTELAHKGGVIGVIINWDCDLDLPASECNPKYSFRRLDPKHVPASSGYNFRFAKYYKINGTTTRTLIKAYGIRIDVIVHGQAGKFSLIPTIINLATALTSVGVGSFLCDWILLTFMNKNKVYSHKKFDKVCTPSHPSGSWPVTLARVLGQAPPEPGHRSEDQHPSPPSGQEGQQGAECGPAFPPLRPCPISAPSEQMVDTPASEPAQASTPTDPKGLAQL

IC50 (human P2X3 receptor; [1]) | IC50 (human P2X2/3 receptor; [2]) | SMILES | IC50 (human P2X3 receptor) | IC50 (human P2X2/3 receptor; hP2X2/3 IC50 (nM))
6 nM | 147 nM | Cc1cnc(-c2cc(O[C@@H]3CCOC3)cc(C(=O)N[C@H](C)c3ccc(Cl)cn3)c2)s1 [Example 15, N-[(1R)-1-(5-chloropyridin-2-yl)ethyl]-3-(5-methyl-1,3-thiazol-2-yl)-5-[(3R)-tetrahydrofuran-3-yloxy]benzamide] |  | 
35 nM | 1010 nM | Cc1ccc(CNC(=O)c2cc(O[C@@H]3CCOC3)cc(-c3ncc(C)s3)c2)nn1 [Example 17, N-[(6-methylpyridazin-3-yl)methyl]-3-(5-methyl-1,3-thiazol-2-yl)-5-[(3R)-tetrahydrofuran-3-yloxy]benzamide] |  | 
34 nM | 427 nM | Cc1ccc([C@@H](C)NC(=O)c2cc(O[C@@H]3CCOC3)cc(-c3ncc(C)s3)c2)nn1 [Example 18, N-[(1R)-1-(6-methylpyridazin-3-yl)ethyl]-3-(5-methyl-1,3-thiazol-2-yl)-5-[(3R)-tetrahydrofuran-3-yloxy]benzamide] |  | 
19 nM | 749 nM | Cc1cnc(-c2cc(O[C@@H]3CCOC3)cc(C(=O)N[C@H](C)c3ccc(C(F)(F)F)nn3)c2)s1 [Example 19, 3-(5-Methyl-1,3-thiazol-2-yl)-5-[(3R)-tetrahydrofuran-3-yloxy]-N-{(1R)-1-[6-(trifluoromethyl)pyridazin-3-yl]ethyl}benzamide] |  | 
35 nM | 486 nM | Cc1cnc(-c2cc(O[C@@H]3CCOC3)cc(C(=O)N[C@H](C)c3nnc(C)s3)c2)s1 [Example 20, N-[(1R)-1-(5-methyl-1,3,4-thiadiazol-2-yl)ethyl]-3-(5-methyl-1,3-thiazol-2-yl)-5-[(3R)-tetrahydrofuran-3-yloxy]benzamide] |  | 
71 nM | 445 nM | Cc1cnc(-c2cc(O[C@@H]3CCOC3)cc(C(=O)NCc3ccc(C(F)(F)F)nn3)c2)s1 [Example 21, 3-(5-Methyl-1,3-thiazol-2-yl)-5-[(3R)-tetrahydrofuran-3-yloxy]-N-{[6-(trifluoromethyl)pyridazin-3-yl]methyl}benzamide] |  | 
132 nM | 987 nM | CC[C@@H](NC(=O)c1cc(O[C@@H]2CCOC2)cc(-c2ncc(C)s2)c1)c1cnc(C(F)(F)F)nc1 [Example 22, 3-(5-Methyl-1,3-thiazol-2-yl)-5-[(3R)-tetrahydrofuran-3-yloxy]-N-{(1R)-1-[2-(trifluoromethyl)pyrimidin-5-yl]propyl}benzamide] |  | 
36 nM | 332 nM | Cc1ccc([C@@H](C)NC(=O)c2cc(O[C@@H]3CCOC3)cc(-c3ncc(C)s3)c2)cn1 [Example 24, N-[(1R)-1-(6-Methylpyridin-3-yl)ethyl]-3-(5-methyl-1,3-thiazol-2-yl)-5-[(3R)-tetrahydrofuran-3-yloxy]benzamide] |  | 
39 nM | 975 nM | Cc1ccc([C@@H](C)NC(=O)c2cc(O[C@H]3CCOC3)cc(-c3ncc(C)s3)c2)nn1 [Example 25, N-[(1R)-1-(6-Methylpyridazin-3-yl)ethyl]-3-(5-methyl-1,3-thiazol-2-yl)-5-[(3S)-tetrahydrofuran-3-yloxy]benzamide] |  | 
25 nM | 280 nM | Cc1cnc(-c2cc(O[C@H]3CCOC3)cc(C(=O)N[C@H](C)c3ccc(Cl)cn3)c2)s1 [Example 27, N-[(1R)-1-(5-Chloropyridin-2-yl)ethyl]-3-(5-methyl-1,3-thiazol-2-yl)-5-[(3S)-tetrahydrofuran-3-yloxy]benzamide] |  | 
48 nM | 121 nM | Cc1ccc([C@@H](C)NC(=O)c2cc(O[C@H]3CCOC3)cc(-c3ncc(C)s3)c2)nc1 [Example 28, N-[(1R)-1-(5-Methylpyridin-2-yl)ethyl]-3-(5-methyl-1,3-thiazol-2-yl)-5-[(3S)-tetrahydrofuran-3-yloxy]benzamide] |  | 
38 nM | 485 nM | Cc1ccc([C@@H](C)NC(=O)c2cc(O[C@H]3CCOC3)cc(-c3ncc(C)s3)c2)cn1 [Example 30, N-[(1R)-1-(6-methylpyridin-3-yl)ethyl]-3-(5-methyl-1,3-thiazol-2-yl)-5-[(3S)-tetrahydrofuran-3-yloxy]benzamide] |  | 
173 nM | ≥ 10000 nM | C#CCOc1cc(C(=O)NCc2ccc(C)nn2)cc(-c2ncc(C)s2)c1 [Example 31, N-[(6-Methylpyridazin-3-yl)methyl]-3-(5-methyl-1,3-thiazol-2-yl)-5-(prop-2-yn-1-yloxy)benzamide] |  | 

More lines, now with the values behind:

SMILES | IC50 (human P2X3 receptor; [1]) | IC50 (human P2X2/3 receptor; [2]) | IC50 (human P2X3 receptor) | IC50 (human P2X2/3 receptor; hP2X2/3 IC50 (nM))
Cc1cnc(-c2cc(O[C@@H]3CCOC3)cc(C(=O)NC(C)c3ncc(F)cc3Cl)c2)s1 (stereo partly drawn) [Example 13, N-[1-(3-chloro-5-fluoropyridin-2-yl)ethyl]-3-(5-methyl-1,3-thiazol-2-yl)-5-[(3R)-tetrahydrofuran-3-yloxy]benzamide] | 21 nM | 1100 nM |  | 
Cc1cnc(-c2cc(O[C@@H]3CCOC3)cc(C(=O)NC(C)c3ncc(Cl)cc3F)c2)s1 (stereo partly drawn) [Example 14, N-[1-(5-chloro-3-fluoropyridin-2-yl)ethyl]-3-(5-methyl-1,3-thiazol-2-yl)-5-[(3R)-tetrahydrofuran-3-yloxy]benzamide] | 8 nM | 88 nM |  | 
Cc1ncc([C@@H](C)NC(=O)c2cc(O[C@@H]3CCOC3)cc(-c3ncc(C)s3)c2)cn1 [Example 23, N-[(1R)-1-(2-Methylpyrimidin-5-yl)ethyl]-3-(5-methyl-1,3-thiazol-2-yl)-5-[(3R)-tetrahydrofuran-3-yloxy]benzamide] |  |  | 30 nM | 1110 nM
C#CCOc1cc(C(=O)N[C@H](C)c2ccc(C)nc2)cc(-c2ncc(C)s2)c1 [Example 33, N-[(1R)-1-(6-Methylpyridin-3-yl)ethyl]-3-(5-methyl-1,3-thiazol-2-yl)-5-(prop-2-yn-1-yloxy)benzamide] | 29 nM | 912 nM |  | 
C#CCOc1cc(C(=O)N[C@H](C)c2cnc(C)cn2)cc(-c2ncc(C)s2)c1 [Example 34, N-[(1R)-1-(5-Methylpyrazin-2-yl)ethyl]-3-(5-methyl-1,3-thiazol-2-yl)-5-(prop-2-yn-1-yloxy)benzamide] | 111 nM | 2120 nM |  | 
C#CCOc1cc(C(=O)NCc2cnc(C)cn2)cc(-c2ncc(C)s2)c1 [Example 35, N-[(5-Methylpyrazin-2-yl)methyl]-3-(5-methyl-1,3-thiazol-2-yl)-5-(prop-2-yn-1-yloxy)benzamide] | 460 nM | ≥ 10000 nM |  | 
C#CCOc1cc(C(=O)N[C@H](C)c2cnc(C(F)(F)F)nc2)cc(-c2ncc(C)s2)c1 [Example 36, 3-(5-Methyl-1,3-thiazol-2-yl)-5-(prop-2-yn-1-yloxy)-N-{(1R)-1-[2-(trifluoromethyl)pyrimidin-5-yl]ethyl}benzamide] | 14 nM | 306 nM |  | 
C#CCOc1cc(C(=O)N[C@H](C)c2ccc(C(F)(F)F)nn2)cc(-c2ncc(C)s2)c1 [Example 38, 3-(5-Methyl-1,3-thiazol-2-yl)-5-(prop-2-yn-1-yloxy)-N-[(1R)-1-[6-(trifluoromethyl)pyridazin-3-yl]ethyl]benzamide] | 55 nM | 1140 nM |  | 
C#CCOc1cc(C(=O)N[C@H](C)c2cnc(C)nc2)cc(-c2ncc(C)s2)c1 [Example 39, N-[(1R)-1-(2-Methylpyrimidin-5-yl)ethyl]-3-(5-methyl-1,3-thiazol-2-yl)-5-(prop-2-yn-1-yloxy)benzamide] | 81 nM | 1650 nM |  | 
